# Measurements taken from patent publication EP4729513A1, “A-KETO ACID AMIDE OR SUBSTITUTED OXALIC ACID AMIDE ESTER COMPOUND AND COMPOSITION THEREOF” (Nanjing Chempion Biotechnology Co., Ltd., priority 2023, dated 2025).
# Molecular target: T1, human TYR (Homo sapiens, UniProt P14679)
# T1 sequence (P14679 19-529): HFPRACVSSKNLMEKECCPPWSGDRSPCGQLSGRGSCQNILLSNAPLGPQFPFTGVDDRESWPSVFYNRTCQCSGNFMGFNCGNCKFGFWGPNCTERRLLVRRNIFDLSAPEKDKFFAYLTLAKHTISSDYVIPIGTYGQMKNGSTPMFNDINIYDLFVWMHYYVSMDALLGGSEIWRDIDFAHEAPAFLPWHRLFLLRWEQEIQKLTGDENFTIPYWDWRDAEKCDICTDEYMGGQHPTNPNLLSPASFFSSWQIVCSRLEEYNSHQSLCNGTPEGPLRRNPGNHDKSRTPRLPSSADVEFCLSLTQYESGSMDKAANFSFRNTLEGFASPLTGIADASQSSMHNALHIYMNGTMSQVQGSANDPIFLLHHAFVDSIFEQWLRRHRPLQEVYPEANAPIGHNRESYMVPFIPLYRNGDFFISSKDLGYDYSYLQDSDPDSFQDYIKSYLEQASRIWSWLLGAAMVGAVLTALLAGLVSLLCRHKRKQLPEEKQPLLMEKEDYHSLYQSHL
# Assay: TYR inhibitory activity by modified MBTH (3-methyl-2-benzothiazolinone hydrazine) method
# Assay type: biochemical
# Settings: compound concentration 2 µg/mL; levodopa oxidized by human TYR, MBTH chromogenic reagent, absorbance at 505 nm
# Procedure: A TYR inhibitory activity of a compound was assessed by a 3-methyl-2-benzothiazolinone hydrazine (MBTH) method modified with reference to the existing report (Journal of Biochemical and Biophysical Methods, 1994, 28 (3): 173-183). With MBTH as a chromogenic reagent, an inhibitory activity of a compound against human TYR was determined as follows: Levodopa was oxidized into L-dopaquinone by the human TYR. MBTH was then allowed to undergo a reaction with the L-dopaquinone to produce a colored product. The reaction was terminated, and the specific absorbance of the colored product at 505 nm was measured.
row,SMILES,inhibition at 2 µg/mL [%]
1,"O=C(Nc1nc(-c2ccc(O)cc2O)cs1)C(=O)OC1CC1 [Cyclopropyl 2-((4-(2,4-dihydroxyphenyl)thiazol-2-yl)amino)-2-oxoacetate]",85.8
2,"CCOC(=O)C(=O)Nc1nc(-c2ccc(O)cc2O)cs1 [Ethyl 2-((4-(2,4-dihydroxyphenyl)thiazol-2-yl)amino)-2-oxoacetate]",89.6
3,"O=C(Nc1nc(-c2ccc(O)cc2O)cs1)C(=O)N1CCCC1 [N-(4-(2,4-Dihydroxyphenyl)thiazol-2-yl)-2-oxo-2-(pyrrolidin-1-yl)oxalamide]",93.5
4,"O=C(Nc1nc(-c2ccc(O)cc2O)cs1)C(=O)N1CCOCC1 [N-(4-(2,4-dihydroxyphenyl)thiazol-2-yl)-2-morpholino-2-oxoacetamide]",86.1
5,"CCC(=O)C(=O)Nc1nc(-c2ccc(O)cc2O)cs1 [N-(4-(2,4-dihydroxyphenyl)thiazol-2-yl)-2-oxobutanamide]",90
6,"O=C(Nc1nc(-c2ccc(O)cc2O)cs1)C(=O)N1CCSCC1 [N-(4-(2,4-dihydroxyphenyl)thiazol-2-yl)-2-thiomorpholin-2-oxoacetamide]",76.5
7,"CC(C)C(=O)C(=O)Nc1nc(-c2ccc(O)cc2O)cs1 [N-(4-(2,4-dihydroxyphenyl)thiazol-2-yl)-3-methyl-2-oxobutanamide]",78.5
8,"CC(C)NC(=O)C(=O)Nc1nc(-c2ccc(O)cc2O)cs1 [N-(4-(2,4-dihydroxyphenyl)thiazol-2-yl)-N'-isopropyloxalamide]",96.7

# Now from value to compound:
row,inhibition at 2 µg/mL [%],SMILES
1,65,"O=C(Nc1nc(-c2ccc(O)cc2O)cs1)C(=O)C1CCCCC1 [2-cyclohexyl-N-(4-(2,4-dihydroxyphenyl)thiazol-2-yl)-2-oxoacetamide]"
2,75.3,"O=C(Nc1nc(-c2ccc(O)cc2O)cs1)C(=O)C1CC1 [2-cyclopropyl-N-(4-(2,4-dihydroxyphenyl)thiazol-2-yl)-2-oxoacetamide]"
3,88.1,"COC(=O)C(=O)Nc1nc(-c2ccc(O)cc2O)cs1 [Methyl 2-((4-(2,4-dihydroxyphenyl)thiazol-2-yl)amino)-2-oxoacetate]"
4,92.6,"CC(=O)C(=O)Nc1nc(-c2ccc(O)cc2O)cs1 [N-(4-(2,4-dihydroxyphenyl)thiazol-2-yl)-2-oxopropanamide]"
5,89.2,"CCN(CC)C(=O)C(=O)Nc1nc(-c2ccc(O)cc2O)cs1 [N-(4-(2,4-dihydroxyphenyl)thiazol-2-yl)-N',N'-diethyloxalamide]"
6,90.7,"CN(C)C(=O)C(=O)Nc1nc(-c2ccc(O)cc2O)cs1 [N-(4-(2,4-dihydroxyphenyl)thiazol-2-yl)-N',N'-dimethyloxalamide]"
